Assay results: PubChem BioAssay AID844 (SRMLSC, 2007)
Activity calls are given as the source filed them. No rule for the calls is given here.

Tested on: MRP1 cells, doxorubicin viability shift, 10 uM compound
Assay: doxorubicin EC50 increase in MRP-1 cells, dose response, cell-based, doxorubicin EC50 shift (AID 844)
Details: for EC50: measured here: doxorubicin EC50 with compound

SMILES | fold increase in Dox EC50 | EC50 [µM]
O=C(NCCc1ccc(Cl)cc1)c1cnc2n(c1=O)CCS2 | 0.66 (inactive) | 3.55
Cc1nc2cc(-c3ccsc3-n3c(C)ccc3C)[nH]n2c(=O)c1Cl | 0.74 (inactive) | 4
Cc1cc(C(=O)Nc2nnc(C(F)(F)F)s2)no1 | 1.51 | 8.14
Cc1cccc(NC(=O)CSc2nc(-c3ccccc3)c(C#N)c(=O)[nH]2)c1C | 1.24 (inactive) | 6.71
N#Cc1cc2c(nc1SCc1ccc(Cl)cc1)CCCC2 | 1.07 (inactive) | 5.75
Cc1ccc(CC2SC(=Nc3ccccc3)N(c3ccccc3)C2=O)cc1 (centres undefined) | 1.69 | 9.1
CC(SC1=NCCS1)C(=O)Nc1nnc(-c2ccc(Br)cc2)s1 (centres undefined) | 0.97 (inactive) | 5.24
COC(=O)C(CC(C)C)NC(=O)CSc1nc(-c2ccccc2)c(C#N)c(=O)[nH]1 (centres undefined) | 1.85 | 10
CC(C)CNC(=O)c1cccc(NC(=O)Cc2ccc(Br)cc2)c1 | 0.92 (inactive) | 4.98
CC(C)(C)c1cc(Br)ccc1OCC(=O)Nc1ncn[nH]1 | 0.89 (inactive) | 4.78
COc1ccccc1-c1nc(C#N)c(N2CCc3ccccc3C2)o1 | 0.37 (inactive) | 1.99
N/C(=N\N=C\c1ccc2c(c1)OCO2)c1nonc1N | 0.88 (inactive) | 4.73
COc1ccc(CCNC(=O)CSCc2ccc(Cl)cc2)cc1OC | 0.67 (inactive) | 3.59
CC(=O)c1ccc(NC(=O)CN2C(=O)/C(=C/C(C)=C/c3ccccc3)SC2=S)cc1 | 0.62 (inactive) | 3.36
CCCCCCCOc1ccc(-c2ccc(C#N)cn2)cc1 | 0.67 (inactive) | 3.63
N#Cc1c(N)n(CCOC(=O)c2cccc(Br)c2)c2nc3ccccc3nc12 | 0.93 (inactive) | 5.04
O=C1c2ccccc2-c2nc3ccccc3n21 | 1.09 (inactive) | 5.87
Cc1ccccc1Cn1ccc(NC(=O)c2onc(C)c2Cl)n1 | 1.15 (inactive) | 6.24
CCOC(=O)c1[nH]c2cc(OC)c(OC)cc2c1N | 0.96 (inactive) | 5.17
CC(NC(=O)C12CC3CC(CC(C3)C1)C2)c1ccc2c(c1)OCCO2 (centres undefined) | 1.06 (inactive) | 5.7
N#Cc1c(-c2ccccc2)nc(SCC(=O)Nc2ccccc2F)[nH]c1=O | 1.79 | 9.66
O=C(NCc1ccc(Cl)cc1)C(=O)NCC(c1ccco1)N1CCOCC1 (centres undefined) | 1.25 (inactive) | 6.77
CCOC(=O)C(C(=O)Nc1nc2ccccc2s1)C1CCCCC1 (centres undefined) | 1 (inactive) | 5.39
CCc1nnc(NC(=O)CCC(=O)N2CCN(CCOc3ccc(C)cc3)CC2)s1 | 1.24 (inactive) | 6.7
COc1ccc(-n2ncc3c(=O)n(CC(=O)N4c5ccccc5CC4C)cnc32)cc1 (centres undefined) | 0.82 (inactive) | 4.44
C=CCNC(=S)NNC(=O)COc1ccc(Br)cc1 | 0.71 (inactive) | 3.82

SMILES | fold increase in Dox EC50 | EC50 [µM]
Brc1ccc(CSc2ncn[nH]2)cc1 | 1 (inactive) | 5.39
O=C(Nc1nc(=O)n(C(=O)C2CC2)s1)c1ccccc1 | 0.55 (inactive) | 2.97
CN=C1S/C(=C\c2cc(C)n(-c3ccccc3F)c2C)C(=O)N1C | 0.65 (inactive) | 3.49
CCCCOc1ccc(/C=C/C(=O)Nc2ccc([N+](=O)[O-])cc2C)cc1 | 1.17 (inactive) | 6.3
Clc1ccc(CSc2ncn[nH]2)cc1 | 1.03 (inactive) | 5.54
CCN(CC)C(=O)C(=O)c1c(-c2ccccc2)[nH]c2ccccc12 | 2.22 | 12
O=C(CC(=O)N/N=C/c1ccccc1O)NCc1cccnc1 | 0.39 (inactive) | 2.08
CCOC(=O)N1CCN(C(=O)CSc2nnc(COc3ccc(Cl)cc3)o2)CC1 | 1.03 (inactive) | 5.55
Cc1ccc(S(=O)(=O)N/N=C\c2cn(-c3ccccc3)nc2-c2ccccc2)cc1 | 1.38 (inactive) | 7.44
C[C@H](C(=O)C=[N+]=[N-])N1C(=O)c2ccccc2C1=O | 0.56 (inactive) | 3.04
N#Cc1nc(COc2ccc(F)cc2)oc1N1CCC(Cc2ccccc2)CC1 | 0.99 (inactive) | 5.35
Cc1cccc(-n2c(N)cc(=O)nc2SCC(=O)Nc2nnc(C)s2)c1 | 1.54 | 8.29
Cc1ccc(C)c(/C(O)=C2\C(=O)C(=O)N(CCCn3ccnc3)C2c2ccncc2)c1 (centres undefined) | 1.17 (inactive) | 6.31
Clc1ccc(OCc2nnnn2-c2ccccc2)cc1 | 0.96 (inactive) | 5.21
Cc1ccccc1Cn1nc(C)c(NC(=O)c2noc3c2CCc2ccccc2-3)c1C | 1.96 | 10.6
CCC(Sc1nc2ccccc2o1)C(=O)Nc1nnc(C)s1 (centres undefined) | 1.34 (inactive) | 7.22
O=C(CSc1ncn[nH]1)N1N=C2/C(=C/c3ccco3)CCCC2C1c1ccco1 (centres undefined) | 0.4 (inactive) | 2.17
Cc1ccc(N/N=C(\C#N)C(=N)N2CCOCC2)cc1 | 0.92 (inactive) | 4.95
CCOc1ccc(Cn2nnc(C(=O)NCCc3ccc(Cl)cc3)c2N)cc1 | 1.6 | 8.64
Cc1cccc(OCc2nc(-c3nonc3N)no2)c1C | 0.78 (inactive) | 4.22
O=C(Nc1nc(-c2cccc([N+](=O)[O-])c2)cs1)C(c1ccccc1)c1ccccc1 | 1.69 | 9.1
O=C(CC1SC(=O)N(c2ccccc2)C1=O)Nc1ccccc1 (centres undefined) | 1.19 (inactive) | 6.42
COc1ccccc1-c1cc(C(=O)NC(C)c2ccccc2)no1 (centres undefined) | 1.04 (inactive) | 5.64
Cc1noc(/C=C/N(C)C)c1S(=O)(=O)N1CCCC(C(=O)NC2CCCCC2C)C1 (centres undefined) | 0.92 (inactive) | 4.98
COc1cc(C(c2sc3ncnn3c2O)N2CCN(c3ccccc3F)CC2)cc(OC)c1OC (centres undefined) | 0.81 (inactive) | 4.37
Cc1c(C(=O)OC2CCC(C)CC2)[nH]c2c1C(=O)CCC2 (centres undefined) | 0.93 (inactive) | 5.01

SMILES | fold increase in Dox EC50 | EC50 [µM]
CCOC(=O)c1c(-c2ccc(F)cc2)csc1NC(=O)c1c(-c2ccccc2)noc1C | 0.56 (inactive) | 3
O=C(Nc1ccn(Cc2ccccc2F)n1)c1ccc(COc2cc(Cl)ccc2Cl)o1 | 0.91 (inactive) | 4.94
Cc1cc(C(=O)OCC(=O)Nc2ccc(F)c(F)c2)c(C)o1 | 1.76 | 9.53
Cc1cc(C)n(-c2ccc(C(=O)Nc3cccc(S(=O)(=O)N(C)C)c3)cc2)n1 | 0.73 (inactive) | 3.93
Cc1nc(=O)c(-c2ccccc2)c(C)n1-c1ccc(C(=O)O)cc1 | 1.3 (inactive) | 7.02
CCCCc1ccc(-c2nc(-c3ccncc3)no2)cc1 | 0.76 (inactive) | 4.09
CCCCC1S/C(=N/N=C/c2ccc(OC)cc2)N(Cc2ccc(OC)cc2)C1=O (centres undefined) | 1.18 (inactive) | 6.34
CNC(=S)Nc1ccc(C23CC4CC(CC(C4)C2)C3)cc1 | 0.7 (inactive) | 3.78
Cc1ccc(N=Nc2c(N)[nH]n3c(=O)cc(-c4ccccc4)nc23)cc1 | 0.08 (inactive) | 0.452
CC(C(=O)N1c2ccccc2CCc2ccccc21)n1nnc(-c2ccc(N(C)C)cc2)n1 (centres undefined) | 1.06 (inactive) | 5.7
O=C(NN1C(=O)/C(=C\c2cccnc2)SC1=S)C(c1ccccc1)c1ccccc1 | 0.84 (inactive) | 4.56
Cc1ccc(N/N=C(\C#N)C(N)=S)c(C)c1 | 0.6 (inactive) | 3.25
COc1cccc(Nc2nc3ccccc3nc2-n2nc(C)cc2C)c1 | 0.35 (inactive) | 1.89
Cn1c(N)c(C(=O)COC(=O)c2cc(C3CC3)nc3ccccc23)c(=O)n(Cc2ccccc2)c1=O | 0.94 (inactive) | 5.07
COc1ccc(CNc2nc(NCc3ccc(OC)cc3)n(C(=O)c3ccccc3[N+](=O)[O-])n2)cc1 | 0.72 (inactive) | 3.9
Cc1ccc(NC(=O)CCC(=O)N/N=C/c2cccs2)cc1C | 0.97 (inactive) | 5.23
O=C(CCNC(=O)Cn1ccc2ccccc2c1=O)NCCc1ccccc1Cl | 1.14 (inactive) | 6.15
CC(C)(C)C1CCc2c(sc(NC(=O)c3cccs3)c2C(=O)N2CCCCC2)C1 (centres undefined) | 0.96 (inactive) | 5.2
CCC(Sc1nc(-c2ccccc2)c(C#N)c(=O)[nH]1)C(=O)Nc1cc(C)on1 (centres undefined) | 1.56 | 8.41
Cc1ccc(OCc2nnc(SCC(=O)Nc3cccc4ccccc34)n2-c2ccccc2)cc1 | 0.33 (inactive) | 1.8
CCCCCCC1CC(CSc2ncn[nH]2)OC1=O (centres undefined) | 1.14 (inactive) | 6.14
Nc1nc2n(n1)C(c1cccs1)CC(c1ccc(Br)cc1)N2 (centres undefined) | 0.91 (inactive) | 4.93
N#CC(C#N)=NNc1ccc(S(=O)(=O)N2CCCC2)cc1 | 1.09 (inactive) | 5.88
Cc1ccc(-c2nnn(CC(=O)N(c3ccccc3F)C(C(=O)NCC3CCCO3)c3c[nH]c4ccccc34)n2)cc1 (centres undefined) | 0.5 (inactive) | 2.67
CCOC(=O)CSc1nc(N)nc(C)c1Br | 0.78 (inactive) | 4.2
